# Patent US20200370087A1, “METHOD FOR DETERMINING MICROBIAL SUSCEPTIBILITY TO ANTIBIOTIC AGENTS” (Ascilion AB, priority 2017, published 2020)
# Legend:
# [1] = tested on: Escherichia coli (ATCC 25922); assay: Glucose consumption susceptibility test, blood culture diluted in MHB with glucose (Example 1); type: cell-based; parameters: glucose concentration, t = 0 / glucose concentration, t = 60 / glucose concentration, t = 120 / glucose concentration, t = 180 / dC/dT (rate of change in glucose concentration) / glucose concentration, t = 240: unit not given here; conditions: E. coli; for glucose concentration, t = 60: 60 minutes; for glucose concentration, t = 120: 120 minutes; for glucose concentration, t = 180: 180 minutes
# Description: (§1) Strains of Escherichia coli (ATCC 25922), Enterococcus faecalis (ATCC 29212) and Staphylococcus aureus (ATCC 29213) were inoculated in blood culture bottles (SVA, Uppsala, Sweden) and cultivated according to the manufacturer's instructions until positive.
# (§2) Medium from each blood culture bottle was diluted 1:100 with cation adjusted Mueller-Hinton broth (SVA, Uppsala, Sweden) supplemented with glucose to a concentration of 1.0 mg/mL.
# (§3) Glucose concentrations were measured at 0, 60, 120, 180, and 240 minutes using a WaveSense Jazz glucometer (AgaMatrix, Inc., Salem, N.H., USA) with accompanying test strips.
# (§4) Susceptibility scores corresponding to MIC values were calculated as described above. A 80% threshold was applied, i.e. the lowest concentration of antibiotic that entailed a rate of change in glucose concentration that was equal to or less than 80% of the reference was selected as the Minimal Inhibitory Concentration. The rate of change was calculated between the measurements at 60 and 180 minutes.
# [2] = tested on: Enterococcus faecalis (ATCC 29212); assay: as above; type: cell-based; parameters: glucose concentration, t = 0 / glucose concentration, t = 60 / glucose concentration, t = 120 / glucose concentration, t = 180 / glucose concentration, t = 240 / dC/dT (rate of change in glucose concentration): unit not given here; conditions: for F = the rate of change in glucose concentration in relation to the reference / dC/dT (rate of change in glucose concentration) / glucose concentration, t = 0 / glucose concentration, t = 60 / glucose concentration, t = 120 / glucose concentration, t = 180 / glucose concentration, t = 240: E. faecalis; for glucose concentration, t = 0: 0 minutes; for glucose concentration, t = 60: 60 minutes; for glucose concentration, t = 120: 120 minutes; for glucose concentration, t = 180: 180 minutes; for glucose concentration, t = 240: 240 minutes
# Description: as §1, §2, §3, §4
compound,measurement,setting,value
"CN[C@H](CC(C)C)C(=O)N[C@H]1C(=O)N[C@@H](CC(N)=O)C(=O)N[C@H]2C(=O)N[C@H]3C(=O)N[C@H](C(=O)N[C@H](C(=O)O)c4cc(O)cc(O)c4-c4cc3ccc4O)[C@H](O)c3ccc(c(Cl)c3)Oc3cc2cc(c3O[C@@H]2O[C@H](CO)[C@@H](O)[C@H](O)[C@H]2O[C@H]2C[C@](C)(N)[C@H](O)[C@H](C)O2)Oc2ccc(cc2Cl)[C@H]1O [Vancomycin, vancomycin]",F = the rate of change in glucose concentration in relation to the reference,[1]; antibiotic 0.0625 μg/mL,67%
same,dC/dT (rate of change in glucose concentration),[1]; antibiotic 0.0625 μg/mL,42
same,"glucose concentration, t = 60",[1]; antibiotic 0.0625 μg/mL,148
same,"glucose concentration, t = 120",[1]; antibiotic 0.0625 μg/mL,144
same,"glucose concentration, t = 180",[1]; antibiotic 0.0625 μg/mL,65
same,F = the rate of change in glucose concentration in relation to the reference,[1]; antibiotic 0.125 μg/mL,71%
same,dC/dT (rate of change in glucose concentration),[1]; antibiotic 0.125 μg/mL,44
same,"glucose concentration, t = 60",[1]; antibiotic 0.125 μg/mL,153
same,"glucose concentration, t = 120",[1]; antibiotic 0.125 μg/mL,154
same,"glucose concentration, t = 180",[1]; antibiotic 0.125 μg/mL,65
same,F = the rate of change in glucose concentration in relation to the reference,[1]; antibiotic 0.25 μg/mL,68%
same,dC/dT (rate of change in glucose concentration),[1]; antibiotic 0.25 μg/mL,42
same,"glucose concentration, t = 60",[1]; antibiotic 0.25 μg/mL,150
same,"glucose concentration, t = 120",[1]; antibiotic 0.25 μg/mL,145
same,"glucose concentration, t = 180",[1]; antibiotic 0.25 μg/mL,66
same,F = the rate of change in glucose concentration in relation to the reference,[1]; antibiotic 0.5 μg/mL,65%
same,dC/dT (rate of change in glucose concentration),[1]; antibiotic 0.5 μg/mL,41
same,"glucose concentration, t = 60",[1]; antibiotic 0.5 μg/mL,149
same,"glucose concentration, t = 120",[1]; antibiotic 0.5 μg/mL,145
same,"glucose concentration, t = 180",[1]; antibiotic 0.5 μg/mL,68
same,F = the rate of change in glucose concentration in relation to the reference,[1]; antibiotic 1 μg/mL,73%
same,dC/dT (rate of change in glucose concentration),[1]; antibiotic 1 μg/mL,45
same,"glucose concentration, t = 60",[1]; antibiotic 1 μg/mL,155
same,"glucose concentration, t = 120",[1]; antibiotic 1 μg/mL,149
same,"glucose concentration, t = 180",[1]; antibiotic 1 μg/mL,65
same,F = the rate of change in glucose concentration in relation to the reference,[1]; antibiotic 2 μg/mL,65%
same,dC/dT (rate of change in glucose concentration),[1]; antibiotic 2 μg/mL,40
same,"glucose concentration, t = 60",[1]; antibiotic 2 μg/mL,147
same,"glucose concentration, t = 120",[1]; antibiotic 2 μg/mL,151
same,"glucose concentration, t = 180",[1]; antibiotic 2 μg/mL,67
same,F = the rate of change in glucose concentration in relation to the reference,[1]; antibiotic 4 μg/mL,69%
same,dC/dT (rate of change in glucose concentration),[1]; antibiotic 4 μg/mL,43
same,"glucose concentration, t = 60",[1]; antibiotic 4 μg/mL,147
same,"glucose concentration, t = 120",[1]; antibiotic 4 μg/mL,145
same,"glucose concentration, t = 180",[1]; antibiotic 4 μg/mL,61
same,F = the rate of change in glucose concentration in relation to the reference,[1]; antibiotic 8 μg/mL,87%
same,dC/dT (rate of change in glucose concentration),[1]; antibiotic 8 μg/mL,54
same,"glucose concentration, t = 60",[1]; antibiotic 8 μg/mL,159
same,"glucose concentration, t = 120",[1]; antibiotic 8 μg/mL,147
same,"glucose concentration, t = 180",[1]; antibiotic 8 μg/mL,51
same,F = the rate of change in glucose concentration in relation to the reference,[2]; antibiotic 0.0625 μg/mL,93%
same,dC/dT (rate of change in glucose concentration),[2]; antibiotic 0.0625 μg/mL,34
same,"glucose concentration, t = 0",[2]; antibiotic 0.0625 μg/mL,145
same,"glucose concentration, t = 60",[2]; antibiotic 0.0625 μg/mL,156
same,"glucose concentration, t = 120",[2]; antibiotic 0.0625 μg/mL,139
same,"glucose concentration, t = 180",[2]; antibiotic 0.0625 μg/mL,89
same,F = the rate of change in glucose concentration in relation to the reference,[2]; antibiotic 0.125 μg/mL,83%
same,dC/dT (rate of change in glucose concentration),[2]; antibiotic 0.125 μg/mL,30
same,"glucose concentration, t = 0",[2]; antibiotic 0.125 μg/mL,148
same,"glucose concentration, t = 60",[2]; antibiotic 0.125 μg/mL,154
same,"glucose concentration, t = 120",[2]; antibiotic 0.125 μg/mL,149
same,"glucose concentration, t = 180",[2]; antibiotic 0.125 μg/mL,94
same,F = the rate of change in glucose concentration in relation to the reference,[2]; antibiotic 0.25 μg/mL,82%
same,dC/dT (rate of change in glucose concentration),[2]; antibiotic 0.25 μg/mL,30
same,"glucose concentration, t = 0",[2]; antibiotic 0.25 μg/mL,143
same,"glucose concentration, t = 60",[2]; antibiotic 0.25 μg/mL,155
same,"glucose concentration, t = 120",[2]; antibiotic 0.25 μg/mL,146
same,"glucose concentration, t = 180",[2]; antibiotic 0.25 μg/mL,96
same,F = the rate of change in glucose concentration in relation to the reference,[2]; antibiotic 0.5 μg/mL,82%
same,dC/dT (rate of change in glucose concentration),[2]; antibiotic 0.5 μg/mL,30
same,"glucose concentration, t = 0",[2]; antibiotic 0.5 μg/mL,154
same,"glucose concentration, t = 60",[2]; antibiotic 0.5 μg/mL,155
same,"glucose concentration, t = 120",[2]; antibiotic 0.5 μg/mL,148
same,"glucose concentration, t = 180",[2]; antibiotic 0.5 μg/mL,96
same,F = the rate of change in glucose concentration in relation to the reference,[2]; antibiotic 1 μg/mL,75%
same,dC/dT (rate of change in glucose concentration),[2]; antibiotic 1 μg/mL,27
same,"glucose concentration, t = 0",[2]; antibiotic 1 μg/mL,151
same,"glucose concentration, t = 60",[2]; antibiotic 1 μg/mL,164
same,"glucose concentration, t = 120",[2]; antibiotic 1 μg/mL,153
same,"glucose concentration, t = 180",[2]; antibiotic 1 μg/mL,110
same,F = the rate of change in glucose concentration in relation to the reference,[2]; antibiotic 2 μg/mL,29%
same,dC/dT (rate of change in glucose concentration),[2]; antibiotic 2 μg/mL,11
same,"glucose concentration, t = 0",[2]; antibiotic 2 μg/mL,147
same,"glucose concentration, t = 60",[2]; antibiotic 2 μg/mL,160
same,"glucose concentration, t = 120",[2]; antibiotic 2 μg/mL,152
same,"glucose concentration, t = 180",[2]; antibiotic 2 μg/mL,139
same,"glucose concentration, t = 240",[2]; antibiotic 2 μg/mL,94
same,F = the rate of change in glucose concentration in relation to the reference,[2]; antibiotic 4 μg/mL,19%
same,dC/dT (rate of change in glucose concentration),[2]; antibiotic 4 μg/mL,7
same,"glucose concentration, t = 0",[2]; antibiotic 4 μg/mL,147
same,"glucose concentration, t = 60",[2]; antibiotic 4 μg/mL,162
same,"glucose concentration, t = 120",[2]; antibiotic 4 μg/mL,153
same,"glucose concentration, t = 180",[2]; antibiotic 4 μg/mL,148
same,"glucose concentration, t = 240",[2]; antibiotic 4 μg/mL,149
same,F = the rate of change in glucose concentration in relation to the reference,[2]; antibiotic 8 μg/mL,7%
same,dC/dT (rate of change in glucose concentration),[2]; antibiotic 8 μg/mL,3
same,"glucose concentration, t = 0",[2]; antibiotic 8 μg/mL,150
same,"glucose concentration, t = 60",[2]; antibiotic 8 μg/mL,156
same,"glucose concentration, t = 120",[2]; antibiotic 8 μg/mL,146
same,"glucose concentration, t = 180",[2]; antibiotic 8 μg/mL,151
same,"glucose concentration, t = 240",[2]; antibiotic 8 μg/mL,145
same,MIC,"[2]; Enterococcus faecalis, ATCC29212, read-out: MIC, Measured",1 µg/mL
